In US8673930B2, “Pyrimidylaminobenzamide derivatives for systemic mastocytosis” (Novartis AG, priority 2005, dated 2014):
pIC50: −log10 of the molar value.

Experiments:
[1] = tested on: GIST882 cells; experiment: GIST882 cell proliferation assay (ATPLite luminescent ATP detection); format: cell-based; settings: Homo sapiens; GIST882 cells (KIT K-642-E), 70 h incubation, mean value; read-out: mean IC50, inhibition of proliferation of GIST882 cells
Protocol: The effects of compounds on viability and proliferation of the cells is determined using the luminescent ATP Detection assay kit ATPLite™ from Perkin Elmer Life Sciences (Cat. No: 6016947) according to the instructions of the suppliers. This assay system is based on the production of light (luminescence) caused by the reaction of ATP with added luciferase and D-luciferin.
GIST882, is a human gastrointestinal stromal tumor (GIST) cell line expressing an activating KIT mutation (exon 13, K-642-E) (Tuveson D A, Willis N A, Jacks T, Griffin J D, Singer S, Fletcher C D, Fletcher J A, Demetri G D, STI571 inactivation of the gastrointestinal stromal tumor c-KIT oncoprotein: biological and clinical implications, Oncogene, 2001 Aug. 16; 20(36):5054-8). The GIST882 cells are cultivated in RPMI 1640 (Invitromex, Cat. No: L0501), supplemented with 15% FCS, and 2 mM glutamine (Gibco). […]
GIST882 cells are seeded into black 96-well tissue culture plates (Packard) at a density of 10000 cells per well in 50 μL complete medium and incubated for one day in order to allow for attachment of the cells. […] Subsequently, 50 μL substrate solution (luciferase and D-luciferin) is added and after 5 min shaking and 10 min dark-adaptation of the plates, light emission was measured with a Packard TopCount. […]

[2] = tested on: systemic mastocytosis (SM) patients; experiment: Phase II open-label study in SM patients; format: in vivo, human; settings: 400 mg orally twice daily, first 23 pts, preliminary data
Protocol: A Phase II, open-label study was designed to evaluate the safety and efficacy of Compound (II) administered orally 400 mg twice daily. SM patients meeting specific disease criteria and with a clinical indication for treatment were enrolled. The results are based on preliminary data for the first 23 pts in this study. Results: The median age was 49 (range 33-78) yrs and the median time from diagnosis of SM was 27 (range 1 to 292) months. […] The median exposure to Compound (II) was 144 days. Treatment is ongoing for 18 (78%) pts; 5 (22%) discontinued, 3 (13%) for adverse events and 2 (9%) withdrew consent. Three (13%) responses were reported (2 incomplete remission and 1 minor response), based on serum tryptase, bone marrow mast cell counts and improvement of clinical symptoms.

Cc1cn(-c2cc(NC(=O)c3ccc(C)c(Nc4nccc(-c5cccnc5)n4)c3)cc(C(F)(F)F)c2)cn1 [Compound (II), 4-methyl-3-[[4-(3-pyridinyl)-2-pyrimidinyl]amino]-N-[5-(4-methyl-1H-imidazol-1-yl)-3-(trifluoromethyl)phenyl]benzamide]
pIC50 [1]: > 6.70 | discontinued for adverse events ([2]; median exposure 144 days): 13% | safety and tolerability in pts with SM [2]: acceptable safety and tolerability profile | responses (based on serum tryptase, bone marrow mast cell counts and improvement of clinical symptoms) ([2]; 2 incomplete remission and 1 minor response): 13%
